Experimental data as given in PMC5407577, “Functional and genetic evidence that nucleoside transport is highly conserved in Leishmania species: Implications for pyrimidine-based chemotherapy” (International Journal for Parasitology: Drugs and Drug …, 2017).

Tests used:
[1] = tested on: L. mexicana promastigotes WT; assay: Alamar blue drug sensitivity assay, L. mexicana WT; format: cell-based, Leishmania mexicana; conditions: Leishmania mexicana, 72 h, WT promastigotes, 72 h + 48 h with dye; n ≥ 4; read-out: EC50
Procedure: (§1) Sensitivity assays of Leishmania strains to various drugs using the viability dye resazurin (Alamar Blue) (Sigma-Aldrich) were performed using a protocol adapted from [Räz et al. (1997)], as described ([Al-Salabi et al., 2003], [Gould et al., 2008]). Pentamidine and diminazene were used as non-nucleoside controls and were obtained from Sigma-Aldrich, as were many purines, pyrimidines, and analogs, with the exceptions of 2-thiouridine and 4-thiouridine (TriLink BioTechnologies, San Diego, CA); 5′-deoxyuridine, and 2′-3′-dideoxyuridine (Carbosynth, Compton, UK); 5-fluoro-2′-deoxyuridine (Fluka); and 2-thiouracil (ICN Biomedicals, Cambridge, UK). A preliminary promastigote culture was diluted to a density of 2 × 10^6 cells/ml, of which 100 μl was added to wells of 96-well plates pre-loaded with 100 μl of doubling dilutions of test compounds, resulting in a final density of 1 × 10^6 cells/ml; the dilutions were over 2 rows of the plate (23 concentrations), with the last well containing only medium and serving as the no-drug control. The plates were incubated at 25 °C for 72 h before adding the Alamar Blue dye (20 μl of 12.5 mg resazurin sodium salt (Sigma) in 100 ml phosphate buffered saline (PBS; pH 7.4)). Since Leishmania parasites metabolize the Alamar Blue dye slower than trypanosomes ([Gould et al., 2008]), the cells were incubated with the dye for a further period of 48 h before measuring the fluorescence, using a FLUOstar Optima fluorimeter (BMG Labtech) at wavelengths of 544 nm for excitation and 620 nm for emission. […] Each experiment was performed independently at least 4 times; statistical significance was determined using Student's unpaired t-test.

L. major promastigotes = assay: metabolomic analysis of treated L. major promastigotes; format: cell-based, Leishmania major; conditions: 100 μM, 8 h
Procedure: (§2) Metabolomics analysis of the Leishmania promastigotes was undertaken in triplicate, exactly as described ([Ali et al., 2013a]). Briefly, cells were grown to log phase stage, resuspended at 2 × 10^6 cells/ml in 50 ml HOMEM/FBS and incubated 8 h with 100 μM of test compound (standard conditions) before transfer to a 50-ml centrifuge tube for instantaneous cooling (dry ice/ethanol bath, 4 °C) and centrifugation (2500 rpm, 10 min, 4 °C). The pellet was lysed with 200 μl of chloroform/methanol/water (1:3:1 v/v/v) containing mass spectrometry standards, and vigorous mixing (1 h, 4 °C); cell debris was removed by centrifugation and the metabolite extracts were stored in HPLC vials at −80 °C. Control samples were prepared in parallel and included untreated cells, unused growth medium, test compound solution and extraction solvent blanks. The analysis used a hydrophilic interaction liquid chromatography (HILIC-LC) fitted with a zwitterionic ZIC-pHILIC column (Merck Sequant), coupled to high resolution mass spectrometry (MS) using a Thermo Q-Exactive, and metabolomic data outputs were analyzed using the IDEOM application (http://mzmatch.sourceforge.net/ideom.php) with default parameters ([Creek et al., 2012]) exactly as described ([Ali et al., 2013a]). The lower limit of detection was set to 500 intensity units for all reported metabolites, in order to prevent spurious identification of low level signals.
(§3) The mechanism of action of the fluorinated pyrimidines was investigated using a metabolomics approach, where promastigotes of L. mexicana and L. major were incubated for 8 h with 100 μM of either 5-FU, 5F-2′dUrd or 5F-Urd prior to metabolite extraction and mass spectrometric analysis as described ([Ali et al., 2013a], [Alkhaldi et al., 2015]). These conditions were chosen to allow for significant metabolite accumulation while not affecting cell viability or growth rate, which could broadly affect metabolite levels.

[2] = tested on: L. major promastigotes WT; assay: Alamar blue drug sensitivity assay, L. major WT; format: cell-based, Leishmania major; conditions: Leishmania major, 72 h, WT promastigotes, 72 h + 48 h with dye; n ≥ 4; read-out: EC50
Procedure: as §1

[3] = tested on: L. mexicana promastigotes; assay: metabolomic analysis of treated L. mexicana promastigotes; format: cell-based, Leishmania mexicana; conditions: 100 μM, 8 h
Procedure: as §2, §3

LmexNT1 = format: cell-based, Leishmania mexicana; conditions: inhibition of 0.25 μM [3H]-uridine uptake in the presence of 1 mM uracil
Procedure: (§4) Using the standard uptake technique as described for T. brucei and Leishmania species ([Wallace et al., 2002], [Al-Salabi and De Koning, 2005], [Gudin et al., 2006]), the dose- or time-dependent uptake of radiolabeled permeants was investigated.
(§5) Briefly, cells in the mid-to-late logarithmic stage of growth were harvested by centrifugation for 10 min at 1500×g. The cells were washed twice with transport assay buffer (AB: 33 mM HEPES, 98 mM NaCl, 4.6 mM KCl, 0.55 mM CaCl2, 0.07 mM MgSO4, 5.8 mM NaH2PO4, 0.3 mM MgCl2, 23 mM NaHCO3, 14 mM glucose, pH 7.3), resuspended at a density of 10^8 cells ml^−1 in AB, and left for 20–30 min at room temperature to recover from centrifugation stress. One hundred microliters of cell suspension was incubated at ambient temperature for a predetermined time with 100 μl radiolabeled test compound, in the presence or absence of unlabeled substrate or other competitive inhibitors. The incubation was terminated by the addition of ice-cold stop solution (AB containing saturating levels, usually 10 mM, of unlabeled permeant) and centrifugation through oil for 1 min at 13,000 × g. […] Radioactivity was determined by liquid scintillation counting in a Beckman LS6000 TA scintillation counter. Saturation data, inhibition data, and time courses were plotted to equations for linear or non-linear regression (hyperbolic or sigmoid curves), as appropriate. All experiments were performed in triplicate and on at least three independent occasions.

LmexUU1 = format: cell-based, Leishmania mexicana; conditions: inhibition of [3H]-uracil uptake, 4 min
Procedure: as §4, §5

Lmex5FURes [4] = format: cell-based, Leishmania mexicana; conditions: 0.5 μM radiolabel
Procedure: as §4, §5

Lmex5F2′dURes = assay: microbe, parasite or virus in culture; format: cell-based, Leishmania mexicana
Procedure: as §1

Lmex5FURes [5] = assay: microbe, parasite or virus in culture; format: cell-based, Leishmania mexicana
Procedure: as §1

Lmaj5FURes = assay: microbe, parasite or virus in culture; format: cell-based, Leishmania major
Procedure: as §1

Lmaj5F2′dURes = assay: microbe, parasite or virus in culture; format: cell-based, Leishmania major
Procedure: as §1

[6] = n = 3, SEM, untreated: not detected (<500)

O=c1[nH]cc(F)c(=O)[nH]1 [5-FU, 5-Fluorouracil]
EC50 [1]: 9.3 ± 0.6 µM | dCMP peak intensity (L. major promastigotes; [6]): 5130 arbitrary units | dUrd peak intensity (L. major promastigotes; untreated: 712 ± 105): 5177 ± 1445 arbitrary units | dCTP peak intensity (L. major promastigotes; untreated: 995 ± 109): 4541 ± 565 arbitrary units | dAdo peak intensity (L. major promastigotes; untreated: 2992 ± 173): 6996 ± 2423 arbitrary units | dAMP peak intensity (L. major promastigotes; untreated: 6192 ± 910): 19379 ± 3774 arbitrary units | dADP peak intensity (L. major promastigotes; untreated: not detected): not detected | dCDP peak intensity (L. major promastigotes; untreated: not detected): 6197 ± 1588 arbitrary units | EC50 [2]: 8.5 ± 0.6 µM | dCMP peak intensity [3, 6]: 5636 ± 3288 arbitrary units | dUrd peak intensity ([3]; untreated: 304 ± 155): 4166 ± 1560 arbitrary units | dADP peak intensity ([3]; untreated: 1458): 8948 ± 461^∗∗ arbitrary units | dAdo peak intensity ([3]; untreated: 2585 ± 811): 6476 ± 2403 arbitrary units | dAMP peak intensity ([3]; untreated: 10660 ± 2897): 20366 ± 5358 arbitrary units | dCDP peak intensity ([3]; untreated: not detected): 4803 ± 433^∗∗ arbitrary units | dCTP peak intensity ([3]; untreated: not detected): 2913 ± 1346 arbitrary units | Ki (LmexNT1): > 5000 µM | Ki (LmexUU1): 56.3 ± 6.4 µM | uptake of radiolabel, lower than in WT control cells (Lmex5FURes [4]): 94.5% | EC50 (Lmex5F2′dURes; Leishmania mexicana): 1770 ± 301 µM | RF (Resistance Factor = IC50 (resistant clone)/IC50 (WT)) (Lmex5F2′dURes; Lmex5F2′dURes vs L. mexicana WT): 190 | EC50 (Lmex5FURes [5]; Leishmania mexicana): 1370 ± 123 µM | RF (Resistance Factor = IC50 (resistant clone)/IC50 (WT)) (Lmex5FURes [5]; Lmex5FURes vs L. mexicana WT): 147 | EC50 (Lmaj5FURes; Leishmania major): 150 ± 5 µM | RF (Resistance Factor = IC50 (resistant clone)/IC50 (WT)) (Lmaj5FURes; Lmaj5FURes vs L. major WT): 17 | EC50 (Lmaj5F2′dURes; Leishmania major): 12 ± 1 µM | RF (Resistance Factor = IC50 (resistant clone)/IC50 (WT)) (Lmaj5F2′dURes; Lmaj5F2′dURes vs L. major WT): 1.3
